Values of other authors, collected in US20080103199A1, “TREATMENT OF PERVASIVE DEVELOPMENTAL DISORDERS” (priority 2006, published 2008).

Tested on: dominant rats
Details: administered to dominant rats; literature (Malatynska 2002); cited from earlier work

Compound | Effect on competitive behavior of dominant rats
NC(=O)N1c2ccccc2C=Cc2ccccc21 [carbamazepine] | significantly reduced competitive behavior
Clc1cccc(Cl)c1N=C1NCCN1 [clonidine] | significantly reduced competitive behavior
